The record followed here is ChEMBL document CHEMBL1201862, “PubChem BioAssay data set” (2004).

Among the test systems are SNB-75; UACC-257; K562; UACC-62; KM12; A498; SK-OV-3; 786-0; SF-295; SK-MEL-5; LOX IMVI; RPMI-8226; SN12C; NCI-H23; HT-29; CAKI-1; SNB-19; NCI-H522; Hs-578T.
Holding throughout (assay): growth of human tumour cells (NCI), 48 h

Molecules are shown by their SMILES. Structures can show the parent of a compound that is named as a salt.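 Step 1: Grow cells in 96-well plates. Step 2: Expose to compound for 48 hours at 5 concentrations. Step 3: Interpolate endpoints linearly; if unreached, use highest concentration. Abbreviation: GI50, concentration required for 50% inhibition of growth.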 Calls of active or inactive are those of the source. Rule as the data show it: active = GI50 up to about 1.1 µM and inactive = higher.

With `N#CC(C#N)/N=C/c1ccncc1`, the GI50 with SNB-75 was > 100 µM (inactive); with UACC-257, > 100 µM (inactive); in the assay with K562 it was > 100 µM (inactive); in the assay with UACC-62, > 100 µM (inactive); in the assay on KM12, > 100 µM (inactive); with A498 it was 95.9 µM (inactive). Further, the GI50 with SK-OV-3, in the assay with 786-0, in the assay on SF-295, with SK-MEL-5, with LOX IMVI and in the assay on RPMI-8226 was > 100 µM (inactive) throughout. The GI50 in the assay with SN12C, in the assay on NCI-H23, in the assay on HT-29 and in the assay on CAKI-1 was > 100 µM (inactive) each time.
On to `C/C(=N\Nc1nc2ccccc2s1)c1cnccn1`, for which the GI50 with SNB-75 is 2.8 µM (inactive); with UACC-257 it was 4.13 µM (inactive); in the assay with SNB-19, 3.67 µM (inactive); in the assay on K562, 1.67 µM (inactive); in the assay on NCI-H522, 0.265 µM (active); with UACC-62, 3.88 µM (inactive). In addition, the GI50 with KM12 is 2.07 µM (inactive); in the assay on Hs-578T, 2.33 µM (inactive); in the assay with SK-OV-3, 2.08 µM (inactive); in the assay with 786-0 it was 2.13 µM (inactive); in the assay on SF-295, 2.76 µM (inactive); in the assay on SK-MEL-5, 2.57 µM (inactive). Moreover, the GI50 is 2.89 µM (inactive) with RPMI-8226; 1.08 µM (active) with SN12C; 1.94 µM (inactive) with NCI-H23; 0.175 µM (active) in the assay on HT-29; 0.256 µM (active) with CAKI-1.
As to `O=C(O)c1ccccc1[Se][Se]c1ccccc1C(=O)O`, the GI50 in the assay on SNB-75 is 29.5 µM (inactive); with UACC-257, 49.5 µM (inactive); in the assay with SNB-19, 11.2 µM (inactive); in the assay on K562, > 100 µM (inactive); in the assay on NCI-H522, 37.9 µM (inactive); in the assay with UACC-62 it was 27.5 µM (inactive). For the same compound, the GI50 with KM12 was 26.8 µM (inactive); in the assay with A498, 95.7 µM (inactive); in the assay with SK-OV-3, 85.5 µM (inactive); with 786-0 it was 75.2 µM (inactive); in the assay on SF-295, 28.4 µM (inactive); in the assay on SK-MEL-5, > 100 µM (inactive). The GI50 was 24.1 µM (inactive) with LOX IMVI; 66.2 µM (inactive) in the assay with RPMI-8226; 53 µM (inactive) with SN12C; 47.5 µM (inactive) with NCI-H23; 35.1 µM (inactive) in the assay on HT-29; 61.8 µM (inactive) with CAKI-1.
Turning to `N#Cc1c(-c2ccco2)cc(-c2ccc(NCc3nc4ccccc4[nH]3)cc2)nc1N`, the GI50 with SNB-75 is 26.4 µM (inactive); in the assay on SNB-19 it was 20.5 µM (inactive); in the assay with K562, 24.3 µM (inactive); with NCI-H522 it was 18.8 µM (inactive); in the assay on UACC-62 it was 16.6 µM (inactive); with KM12, 18.7 µM (inactive). For the same compound, the GI50 with A498 was 25 µM (inactive); in the assay on SK-OV-3, 50.5 µM (inactive); in the assay on 786-0 it was 28.6 µM (inactive); in the assay on SF-295, 19.5 µM (inactive); with SK-MEL-5 it was 16 µM (inactive); with LOX IMVI it was 18.7 µM (inactive). In addition, the GI50 in the assay on RPMI-8226 was 19.2 µM (inactive); in the assay on SN12C it was 22.5 µM (inactive); in the assay with NCI-H23, 20.2 µM (inactive); in the assay with HT-29, 32.6 µM (inactive); in the assay on CAKI-1 it was 33.8 µM (inactive).
Turning to `CCOC(=O)C(NC(=O)CC(C)C)(Nc1ccc(C(F)(F)F)cc1)C(F)(F)F` (stereo unspecified), the GI50 with SNB-75 was 6.31 µM (inactive); in the assay with UACC-257, 44.3 µM (inactive); in the assay on SNB-19 it was > 100 µM (inactive); with K562, 23.9 µM (inactive); with NCI-H522 it was 16.7 µM (inactive); in the assay with KM12, 14.7 µM (inactive). Besides, the GI50 with Hs-578T was 25.5 µM (inactive); in the assay with SK-OV-3, > 100 µM (inactive); in the assay on 786-0, 82.4 µM (inactive); with SF-295, > 100 µM (inactive); in the assay on SK-MEL-5, 82.8 µM (inactive); with LOX IMVI it was 84.5 µM (inactive). Also, the GI50 in the assay with RPMI-8226 is 16.7 µM (inactive); in the assay on SN12C, > 100 µM (inactive); in the assay on NCI-H23, 76.4 µM (inactive); in the assay with HT-29, 21 µM (inactive).
With `COc1cnc2cc(C(=O)O)c3c([N+](=O)[O-])cccc3c2c1`, the GI50 with SNB-75, in the assay with UACC-257, in the assay with SNB-19, in the assay on K562, in the assay on NCI-H522 and in the assay with UACC-62 was > 100 µM (inactive) each time. Besides, the GI50 in the assay on KM12, in the assay with Hs-578T, with SK-OV-3, with 786-0, in the assay with SF-295 and with SK-MEL-5 was > 100 µM (inactive) throughout. Besides, the GI50 in the assay on LOX IMVI, with RPMI-8226, with SN12C, with NCI-H23, in the assay on HT-29 and with CAKI-1 was > 100 µM (inactive) throughout.
On to `CC1(C)C(/C=N\O)=[N+]([O-])C(C)(C)N1O`, for which the GI50 in the assay on SNB-75, in the assay on UACC-257, in the assay on SNB-19, in the assay on K562, with UACC-62 and in the assay with KM12 was > 100 µM (inactive) each time. In addition, the GI50 in the assay with Hs-578T, in the assay on SK-OV-3, with 786-0, with SF-295, in the assay on SK-MEL-5 and with LOX IMVI was > 100 µM (inactive) in each case. The GI50 in the assay with RPMI-8226 is > 100 µM (inactive); in the assay with SN12C, > 100 µM (inactive); with NCI-H23, > 100 µM (inactive); in the assay with HT-29 it was 54.3 µM (inactive); in the assay with CAKI-1 it was > 100 µM (inactive).
Regarding `COc1ccc2[nH]c3c(c2c1)[C@H](C)C[C@@H]1C(=O)N(c2ccccc2)C(=O)[C@H]31`, the GI50 was 21.4 µM (inactive) with SNB-75; 56.1 µM (inactive) in the assay with UACC-257; 29.4 µM (inactive) in the assay with SNB-19; 46 µM (inactive) in the assay with K562; 16.1 µM (inactive) in the assay on NCI-H522; 44.1 µM (inactive) in the assay on UACC-62. The GI50 with KM12 is 17.8 µM (inactive); in the assay on A498 it was 20.6 µM (inactive); with SK-OV-3 it was 20.5 µM (inactive); with 786-0, 22.8 µM (inactive); with SF-295, 26 µM (inactive); in the assay on SK-MEL-5 it was 39.4 µM (inactive). The GI50 was 25.2 µM (inactive) with LOX IMVI, 27.1 µM (inactive) with SN12C, 22.3 µM (inactive) in the assay on NCI-H23 and 33 µM (inactive) in the assay with CAKI-1.
As to `CC1(C)CC2=C(SC3C=CC=CC3N2)C(=O)C1C(=O)C(N)=O` (stereo unspecified), the GI50 is > 100 µM (inactive) in the assay with SNB-75; > 100 µM (inactive) in the assay with UACC-257; > 100 µM (inactive) in the assay on SNB-19; 72.3 µM (inactive) in the assay on NCI-H522; > 100 µM (inactive) with UACC-62; > 100 µM (inactive) with KM12. Moreover, the GI50 in the assay with Hs-578T, in the assay on SK-OV-3, in the assay on 786-0, in the assay with SF-295, in the assay on SK-MEL-5 and with LOX IMVI was > 100 µM (inactive) in each case. The GI50 with SN12C, with NCI-H23, with HT-29 and in the assay on CAKI-1 was > 100 µM (inactive) each time.
Regarding `CC(C)CCC[C@@H](C)C1CCC2[C@@H]3CCC4C[C@@H](NS(C)(=O)=O)CC[C@]4(C)C3CC[C@@]21C` (stereo partly specified), the GI50 in the assay on SNB-75, with UACC-257, with SNB-19, in the assay with K562, in the assay on NCI-H522 and with UACC-62 was > 100 µM (inactive) each time. Moreover, the GI50 in the assay with KM12, in the assay with Hs-578T, with SK-OV-3, with 786-0, in the assay on SF-295 and in the assay with SK-MEL-5 was > 100 µM (inactive) in each case. Further, the GI50 with LOX IMVI, in the assay on RPMI-8226, in the assay on SN12C, in the assay with NCI-H23, in the assay with HT-29 and in the assay on CAKI-1 was > 100 µM (inactive) in each case.
With `NCCS` [CYSTEAMINE HYDROCHLORIDE], the GI50 in the assay with SNB-75, in the assay on UACC-257, with SNB-19, in the assay with K562, in the assay on NCI-H522 and in the assay with KM12 was > 100 µM (inactive) throughout. The GI50 in the assay on Hs-578T, with 786-0, with SF-295, in the assay with SK-MEL-5, with LOX IMVI and with RPMI-8226 was > 100 µM (inactive) each time. Moreover, the GI50 with SN12C, with NCI-H23, in the assay on HT-29 and in the assay with CAKI-1 was > 100 µM (inactive) each time.
`C=C(C)[C@H]1CC23C(=O)C(C(=O)C(C)C)=C(O)[C@](C)(C[C@H]2C1(C)C)C3=O` [LALIBINONE B]: the GI50 is 24 µM (inactive) in the assay on UACC-257; 25.8 µM (inactive) in the assay on SNB-19; 20.5 µM (inactive) with K562; 16.5 µM (inactive) with NCI-H522; 16.3 µM (inactive) with UACC-62; 19.6 µM (inactive) in the assay with KM12. Further, the GI50 in the assay with Hs-578T is 23 µM (inactive); in the assay with 786-0 it was 15.6 µM (inactive); in the assay on SF-295, 15.1 µM (inactive); in the assay with SK-MEL-5, 17.7 µM (inactive); with LOX IMVI, 20.7 µM (inactive); with RPMI-8226, 12.8 µM (inactive). Also, the GI50 is 17 µM (inactive) with SN12C, 18.9 µM (inactive) with NCI-H23, 11.9 µM (inactive) in the assay on HT-29 and 22 µM (inactive) with CAKI-1.
